Key:
Flashpoint of materials = format: physicochemical
Method: In a preferred embodiment A2 of the first aspect, the solvent (B) has a flashpoint (determined according to ISO 2719:2016) of more than 130° C., preferably more than 135° C., and in particular more than 140° C.

[1] = NxPT recovery on closed storage of urea treated in the melt with urease inhibitor formulations in different solvents (Example 2); format: physicochemical; settings: 550 ppm NxPT added to urea melt; closed storage at 30° C. and 40° C.; 2 and 6 months; HPLC DIN_EN_16651
Method: 900 g urea+20 mL water were added to a metal pan and heated to 135° C.+1−5° C. under continuous stirring using an overhead stirrer. When all urea was melted, the respective amount of urease inhibitor formulation was added to the urea melt to achieve an NxPT (i.e. NBPT and NPPT) concentration of 550 ppm in urea. After 1 minute of mixing, the molten urea was poured onto an aluminum tray and let cool down at room temperature for 30 min. Afterwards, the urea was broken up in pieces of 1-6 mm and stored in closed polyethylene bottles at 30° C. and 40° C. After 2 and 6 months samples were taken and analyzed for active ingredient concentration. […] The resulting NxPT concentrations from both measurements were averaged.

[2] = granulated urea, 0.055 wt.-% NBPT+NPPT; closed storage 20° C., 30° C., 40° C., up to 12 months; compared to samples containing PEI
Method: In a test plant, urea was granulated in a fluidized bed granulator having a cylindrical fluidized bed of diameter 40 cm at a temperature of about 108° C. […] The fluidization air flowed at a superficial flow rate of about 2 m/s into the fluidized bed. An overflow was mounted 10 cm above the baseplate at the side wall of the bed. A defined amount (about 30 kg) of urea particles or urea granules having a narrow size distribution was then introduced into the granulator column as seeds for the granulation. The bed with the seeds (about 50 cm deep) was fluidized with hot air at a temperature of about 100° C., and the addition of 96 to 97% by weight urea solution at a temperature of about 135° C. was commenced as soon as the bed had reached the temperature of about 108° C. that was envisaged for the run. From a reservoir tank, the urea solution having a water content of 3-4% by weight was then introduced into the fluidized bed granulator at a rate of 300 kg/h via a spray nozzle that was operated at a temperature of about 140° C. with air, supplied at a rate of 240 kg/h. […]
Samples of the resulting urea granules were stored in closed polyethylene bottles at 20° C., 30° C. and 40° C. Samples were taken after 0, 1, 2, 3, 4, 6, and 12 months and analyzed for active ingredient concentration. From each sample 2×15 g was dissolved in 100 mL water and analyzed using HPLC method DIN_EN_16651. […]

[3] = NxPT recovery on closed storage at 30° C. of urea coated with amine-containing formulations (Example 5); format: physicochemical
Method: 3 kg of urea fertilizer granules were added to an ERWEKA mixer (dimensions mix drum: 50 cm diameter, 20 cm high). The mixer was turned on (27 RPM) and the respective amount of urease inhibitor formulation (formulations of NBPT and NPPT in DEG with additional amine were prepared as shown in Table 3 below) was sprayed onto the urea using a syringe to achieve a total NxPT concentration of 550 ppm (137.5 ppm NPPT and 412.5 ppm NBPT) on urea. The fertilizer/urease inhibitor mixture was mixed for 5 minutes. Afterwards, the treated urea was stored in closed polyethylene bottles at 30° C. Samples were taken after 1, 2, 3 and 6 months and analyzed for active ingredient concentration. […] The resulting NxPT concentrations from both measurements were averaged.

Row | Compound | Flashpoint (Flashpoint of materials) [°C] | further results
1 | CC(O)CO (stereo not shown) [PG, Propylene glycol] | 99 | –
2 | OCCOCCO [DEG, Diethylene glycol] | 142 | stabilizing properties on NxPT during storage of the treated urea, among the tested glycols [1]: best stabilizing properties

Further lines, with some results ahead:

Row | Flashpoint (Flashpoint of materials) [°C] | Compound | further results
3 | 191 | CC(O)CN(CCO)CCO (stereo not shown) [DEIPA, Diethanol isopropanol amine] | storage stability in urea [2]: higher storage stability; performance in urease inhibitor formulations applied as coating to urea ([3]; 550 ppm NxPT sprayed onto urea granules, closed storage 30° C., 1, 2, 3 and 6 months): same performance; stabilizing effect ([3]; amine in DEG formulation of NBPT and NPPT on urea): stabilizing effect
4 | 95 | C[S+](C)[O-] [DMSO, Dimehtyl sulfoxide] | ranking of the stabilizing properties of the tested solvents [1]: DEG>DPG>PG>N,N-Agnique AMD 3L>DMSO
5 | 103 | CC(O)C(=O)N(C)C (stereo not shown) [Agnique AMD 3L, N,N-Dimethyl lactamide] | –

Source: patent US20250276942A1, “UREASE INHIBITOR FORMULATION FOR USE IN UREA GRANULATION PROCESS” (BASF SE, priority 2021, published 2025)
